Assay results published in US12479847B2 (DANA-FARBER CANCER INSTITUTE, INC., priority 2019, dated 2025).
Like-named read-outs stand apart in the source and are kept apart here.

Assays:
Test in all cases: KINOMEscan (ScanMAX) kinase profiling
Assay type in all cases: binding
panel of 468 kinases [1] = target: T1, panel of 468 kinases (Homo sapiens, UniProt P07333); details: 1 μM, read-out: % control
T1 construct: purchased KINOMEscan (ScanMAX) service

panel of 468 kinases [2] = target: T2, panel of 468 kinases (Homo sapiens, UniProt P53355); details: DAPK1; 1 μM; read-out: % control
T2 construct: purchased KINOMEscan (ScanMAX) service

panel of 468 kinases [3] = target: T3, panel of 468 kinases (Homo sapiens, UniProt P33981); details: TTK; 1 μM; read-out: % control
T3 construct: purchased KINOMEscan (ScanMAX) service
T3 sequence (P33981 1-857): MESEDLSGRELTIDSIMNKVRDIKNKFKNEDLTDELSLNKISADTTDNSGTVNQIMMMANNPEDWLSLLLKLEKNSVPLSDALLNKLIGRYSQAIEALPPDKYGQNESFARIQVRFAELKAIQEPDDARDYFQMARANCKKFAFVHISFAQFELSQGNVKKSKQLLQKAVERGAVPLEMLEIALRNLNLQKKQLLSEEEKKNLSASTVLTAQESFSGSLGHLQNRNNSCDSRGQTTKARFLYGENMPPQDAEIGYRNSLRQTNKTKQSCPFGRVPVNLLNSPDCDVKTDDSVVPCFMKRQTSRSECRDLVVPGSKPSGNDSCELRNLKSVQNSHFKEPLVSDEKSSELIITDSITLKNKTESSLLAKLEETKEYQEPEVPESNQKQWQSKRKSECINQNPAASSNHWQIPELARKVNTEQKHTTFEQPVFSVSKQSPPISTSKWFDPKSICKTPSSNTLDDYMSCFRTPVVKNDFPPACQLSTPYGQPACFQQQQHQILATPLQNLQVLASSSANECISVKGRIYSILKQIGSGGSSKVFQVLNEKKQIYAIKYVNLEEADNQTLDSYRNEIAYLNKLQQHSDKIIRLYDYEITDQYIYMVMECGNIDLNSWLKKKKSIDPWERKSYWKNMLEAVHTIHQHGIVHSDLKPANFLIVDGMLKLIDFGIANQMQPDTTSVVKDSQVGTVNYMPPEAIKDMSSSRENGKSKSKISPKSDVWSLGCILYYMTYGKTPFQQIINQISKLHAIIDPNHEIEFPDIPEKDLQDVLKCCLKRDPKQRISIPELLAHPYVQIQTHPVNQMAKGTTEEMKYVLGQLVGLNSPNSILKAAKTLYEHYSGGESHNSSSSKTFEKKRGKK

panel of 468 kinases [4] = target: T4, panel of 468 kinases (Homo sapiens, UniProt Q8NG66); details: NEK11; 1 μM; read-out: % control
T4 construct: purchased KINOMEscan (ScanMAX) service
T4 sequence (Q8NG66 1-645): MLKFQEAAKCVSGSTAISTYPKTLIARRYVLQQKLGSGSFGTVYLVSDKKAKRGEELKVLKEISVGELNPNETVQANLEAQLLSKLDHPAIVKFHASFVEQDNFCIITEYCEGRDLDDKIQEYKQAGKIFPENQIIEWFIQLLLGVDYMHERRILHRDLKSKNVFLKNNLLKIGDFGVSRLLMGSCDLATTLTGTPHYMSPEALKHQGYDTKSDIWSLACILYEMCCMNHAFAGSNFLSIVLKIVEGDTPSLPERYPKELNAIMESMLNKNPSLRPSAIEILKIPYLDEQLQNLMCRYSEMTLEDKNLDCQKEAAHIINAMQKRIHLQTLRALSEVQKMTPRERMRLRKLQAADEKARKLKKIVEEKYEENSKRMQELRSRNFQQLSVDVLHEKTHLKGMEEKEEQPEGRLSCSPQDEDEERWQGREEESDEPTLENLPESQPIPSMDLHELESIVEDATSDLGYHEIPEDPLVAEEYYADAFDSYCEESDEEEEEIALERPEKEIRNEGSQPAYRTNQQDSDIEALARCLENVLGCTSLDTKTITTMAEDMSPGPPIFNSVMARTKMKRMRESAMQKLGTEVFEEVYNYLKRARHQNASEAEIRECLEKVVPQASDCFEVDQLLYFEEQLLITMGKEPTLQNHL

panel of 468 kinases [5] = target: T5, panel of 468 kinases (Homo sapiens, UniProt P29320); details: EPHA3; 1 μM; read-out: % control
T5 construct: purchased KINOMEscan (ScanMAX) service
T5 sequence (P29320 21-983): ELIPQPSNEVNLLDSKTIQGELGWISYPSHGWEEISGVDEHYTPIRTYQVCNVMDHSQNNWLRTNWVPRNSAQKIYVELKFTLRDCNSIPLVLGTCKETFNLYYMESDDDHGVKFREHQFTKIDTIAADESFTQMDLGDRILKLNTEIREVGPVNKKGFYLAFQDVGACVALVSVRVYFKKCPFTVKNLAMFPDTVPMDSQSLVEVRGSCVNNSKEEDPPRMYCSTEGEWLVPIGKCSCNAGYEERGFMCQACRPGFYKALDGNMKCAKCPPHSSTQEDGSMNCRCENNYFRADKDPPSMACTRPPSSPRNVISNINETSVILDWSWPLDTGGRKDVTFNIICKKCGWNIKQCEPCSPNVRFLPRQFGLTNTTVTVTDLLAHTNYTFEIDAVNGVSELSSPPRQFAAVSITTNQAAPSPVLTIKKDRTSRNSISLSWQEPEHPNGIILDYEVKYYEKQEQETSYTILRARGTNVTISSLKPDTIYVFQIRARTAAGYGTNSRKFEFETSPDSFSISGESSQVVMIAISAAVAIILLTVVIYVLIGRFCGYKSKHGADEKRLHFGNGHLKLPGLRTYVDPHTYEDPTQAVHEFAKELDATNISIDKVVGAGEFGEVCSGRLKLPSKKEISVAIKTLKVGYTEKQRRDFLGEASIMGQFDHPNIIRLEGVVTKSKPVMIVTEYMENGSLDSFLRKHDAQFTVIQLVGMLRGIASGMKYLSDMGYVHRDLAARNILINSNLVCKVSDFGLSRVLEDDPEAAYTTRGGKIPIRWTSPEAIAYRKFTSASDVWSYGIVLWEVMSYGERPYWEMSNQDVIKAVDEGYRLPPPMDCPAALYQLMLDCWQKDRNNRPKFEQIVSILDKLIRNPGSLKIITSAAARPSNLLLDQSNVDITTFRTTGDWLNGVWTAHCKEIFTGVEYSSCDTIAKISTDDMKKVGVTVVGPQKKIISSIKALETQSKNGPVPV

T1 sequence (P07333 20-972): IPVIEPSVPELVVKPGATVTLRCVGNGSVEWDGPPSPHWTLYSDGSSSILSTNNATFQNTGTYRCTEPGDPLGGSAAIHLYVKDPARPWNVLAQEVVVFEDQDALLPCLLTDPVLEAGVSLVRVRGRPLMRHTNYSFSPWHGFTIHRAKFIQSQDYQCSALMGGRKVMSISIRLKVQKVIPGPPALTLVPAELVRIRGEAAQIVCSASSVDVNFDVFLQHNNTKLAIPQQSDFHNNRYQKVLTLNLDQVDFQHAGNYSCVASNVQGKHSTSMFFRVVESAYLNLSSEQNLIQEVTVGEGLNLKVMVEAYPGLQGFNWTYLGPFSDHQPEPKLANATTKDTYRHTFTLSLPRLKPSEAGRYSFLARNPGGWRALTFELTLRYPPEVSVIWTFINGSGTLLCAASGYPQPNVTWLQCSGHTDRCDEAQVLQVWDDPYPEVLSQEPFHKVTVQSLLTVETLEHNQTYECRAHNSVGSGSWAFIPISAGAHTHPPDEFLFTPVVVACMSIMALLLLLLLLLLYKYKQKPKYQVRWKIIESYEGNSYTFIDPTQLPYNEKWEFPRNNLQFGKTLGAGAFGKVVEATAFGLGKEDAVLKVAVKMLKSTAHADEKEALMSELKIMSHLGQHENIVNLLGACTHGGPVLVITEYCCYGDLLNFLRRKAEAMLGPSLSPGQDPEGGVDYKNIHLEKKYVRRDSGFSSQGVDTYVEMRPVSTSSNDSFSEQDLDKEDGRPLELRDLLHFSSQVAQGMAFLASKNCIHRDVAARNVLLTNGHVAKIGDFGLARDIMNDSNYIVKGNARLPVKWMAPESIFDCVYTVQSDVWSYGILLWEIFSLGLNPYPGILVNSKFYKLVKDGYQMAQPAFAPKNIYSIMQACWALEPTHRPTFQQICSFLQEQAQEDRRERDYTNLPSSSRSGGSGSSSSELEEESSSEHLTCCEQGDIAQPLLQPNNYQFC
T2 sequence (P53355 whole entry): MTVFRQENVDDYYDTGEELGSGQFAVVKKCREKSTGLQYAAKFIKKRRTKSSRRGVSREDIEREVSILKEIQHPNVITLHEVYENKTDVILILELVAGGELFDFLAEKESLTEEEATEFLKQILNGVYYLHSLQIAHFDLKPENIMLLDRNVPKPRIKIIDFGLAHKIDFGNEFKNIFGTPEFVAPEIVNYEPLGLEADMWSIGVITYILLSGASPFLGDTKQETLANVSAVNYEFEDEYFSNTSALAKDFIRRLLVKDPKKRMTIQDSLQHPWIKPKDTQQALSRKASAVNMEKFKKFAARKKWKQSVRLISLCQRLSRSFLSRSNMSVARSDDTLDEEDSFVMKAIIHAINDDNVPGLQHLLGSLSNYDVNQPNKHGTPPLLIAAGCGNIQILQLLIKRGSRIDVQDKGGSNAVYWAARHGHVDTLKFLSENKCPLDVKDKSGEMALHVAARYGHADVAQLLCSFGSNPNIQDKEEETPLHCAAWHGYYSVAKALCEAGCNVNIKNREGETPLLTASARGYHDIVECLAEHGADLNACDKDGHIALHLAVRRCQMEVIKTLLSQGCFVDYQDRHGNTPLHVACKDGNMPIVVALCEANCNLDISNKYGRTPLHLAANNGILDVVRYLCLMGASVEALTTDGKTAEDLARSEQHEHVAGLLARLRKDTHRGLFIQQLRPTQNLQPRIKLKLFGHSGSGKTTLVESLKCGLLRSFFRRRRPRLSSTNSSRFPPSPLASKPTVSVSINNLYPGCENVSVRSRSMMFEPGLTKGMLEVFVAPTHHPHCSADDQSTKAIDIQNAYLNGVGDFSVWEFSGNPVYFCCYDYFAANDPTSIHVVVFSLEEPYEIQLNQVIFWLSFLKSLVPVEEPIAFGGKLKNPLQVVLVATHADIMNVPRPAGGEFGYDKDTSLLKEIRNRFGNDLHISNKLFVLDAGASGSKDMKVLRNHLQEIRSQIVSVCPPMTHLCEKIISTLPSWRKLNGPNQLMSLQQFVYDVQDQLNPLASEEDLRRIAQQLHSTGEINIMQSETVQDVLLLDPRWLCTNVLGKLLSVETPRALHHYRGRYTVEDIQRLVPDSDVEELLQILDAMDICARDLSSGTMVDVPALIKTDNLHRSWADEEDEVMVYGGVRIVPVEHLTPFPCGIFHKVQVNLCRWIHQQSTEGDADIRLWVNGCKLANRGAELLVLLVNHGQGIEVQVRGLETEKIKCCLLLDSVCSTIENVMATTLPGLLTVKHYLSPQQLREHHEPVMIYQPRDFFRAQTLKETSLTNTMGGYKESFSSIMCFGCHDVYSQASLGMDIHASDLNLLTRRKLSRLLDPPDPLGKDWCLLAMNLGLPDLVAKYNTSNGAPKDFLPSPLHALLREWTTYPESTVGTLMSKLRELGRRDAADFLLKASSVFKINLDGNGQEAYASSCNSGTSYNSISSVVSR

| SMILES | remaining binding at 1 µM (panel of 468 kinases [1]; CSF1R-autoinhibited) [%] | remaining binding at 1 µM (panel of 468 kinases [1]; CSF1R) [%] | remaining binding at 1 µM (panel of 468 kinases [2]) [%] | remaining binding at 1 µM (panel of 468 kinases [3]) [%] | remaining binding at 1 µM (panel of 468 kinases [4]) [%] | remaining binding at 1 µM (panel of 468 kinases [5]) [%] |
| --- | --- | --- | --- | --- | --- | --- |
| CNc1nc(Nc2ccc(C(=O)N3CCC(N4CCOCC4)CC3)c3c2OCO3)nc2[nH]cc(Cl)c12 [Compound 75, (7-((5-chloro-4-(methylamino)-7H-pyrrolo[2,3-d]pyrimidin-2-yl)amino)benzo[d][1,3]dioxol-4-yl)(4-morpholinopiperidin-1-yl)methanone] | 99 | 98 | 14 | 0.6 | 100 | 100 |
| CNc1nc(Nc2ccc(S(=O)(=O)N3CCC(N4CCOCC4)CC3)cc2OC)nc2[nH]cc(Cl)c12 [Compound 12, 5-chloro-N2-(2-methoxy-4-((4-morpholinopiperidin-1-yl)sulfonyl)phenyl)-N4-methyl-7H-pyrrolo[2,3-d]pyrimidine-2,4-diamine] | 100 | 100 | 43 | 1 | 96 | 100 |
| CNc1nc(Nc2ccc(P3(=O)CCN(C4CCOCC4)CC3)cc2OC)nc2[nH]cc(Cl)c12 [Compound 77, 4-(4-((5-chloro-4-(methylamino)-7H-pyrrolo[2,3-d]pyrimidin-2-yl)amino)-3-methoxyphenyl)-1-(tetrahydro-2H-pyran-4-yl)-1,4-azaphosphinane 4-oxide] | 100 | 100 | 8.3 | 0.5 | 100 | 100 |
